Here are results for 14 compounds from PubChem BioAssay (NCI).

Each structure is given as a SMILES string. Values joined by “and” are separate entries in the source; they are usually repeats but may differ in a detail not shown here. Identical values can stand only once.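 Protocol summary: plate cells (96-well), add compound at 5 concentrations, incubate 48 h, interpolate endpoints linearly. At the GI50, growth is halved. The concentration for full growth arrest is given as TGI.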

Holding throughout (assay): NCI-60 cell line screen, 48 h
For experiment [1], the system named is CCRF-CEM leukemia.
Experiment [2] deals with COLO 205 colon.
Experiment [3] deals with HOP-62 NSCLC.
The subject of experiment [4] is IGROV1 ovarian.
The subject of experiment [5] is NCI-H23 lung.
Experiment [6] deals with NCI-H522 lung.
Experiment [7] relates to OVCAR-3 ovarian.
For experiment [8], the system named is SF-295 CNS.
Experiment [9] relates to SF-539 CNS.
Experiment [10] relates to SK-OV-3 ovarian.

As for `CC(O)CN1c2ccccc2Sc2ccc(Cl)cc21` (centres undefined), the TGI in experiment [1], in experiment [2], in experiment [3], in [4], in [5] and in [6] was > 10 µM in each case. For the same compound, the TGI in [7], in [8], in [9] and in [10] was > 10 µM in each case.
For the compound `CC[C@@H](C)Nc1cc(C(=O)NC2CC3CCC(C2)N3c2ccc(C(=O)C3CC3)cn2)c(C)cc1C(N)=O` (some centres undefined), the GI50 in experiment [1] was 0.0482 µM; in experiment [2], 0.0182 µM; in experiment [3], 0.0598 µM; in [4] it was 0.0436 µM; in experiment [5], 0.0589 µM; in experiment [6], 0.0451 µM. In addition, the GI50 in experiment [7] is 0.0672 µM; in experiment [8], 0.0288 µM; in [9], 0.0679 µM; in experiment [10] it was < 0.0114 µM. The TGI in experiment [1] was > 100 µM; in experiment [2], 11.6 µM; in experiment [3], > 100 µM; in [4], > 100 µM; in experiment [5] it was > 100 µM; in experiment [6], 41.8 µM. Moreover, the TGI in [7] is > 88.1 µM; in experiment [8], > 100 µM; in experiment [9], > 100 µM; in experiment [10], > 100 µM.
Consider `O=c1c(-c2ccc(O)cc2)coc2cc(OC3OC(CO)C(O)C(O)C3O)cc(O)c12` (centres undefined), for which the GI50 in [1] was > 10 µM; in experiment [2], > 100 µM; in experiment [3] it was > 100 µM; in experiment [4], > 100 µM; in experiment [5] it was > 100 µM; in [10] it was > 100 µM. In addition, the TGI in [1], in [2], in experiment [3], in [4], in experiment [5] and in [6] was > 100 µM each time. Besides, the TGI in [7], in experiment [8], in [9] and in [10] was > 100 µM throughout.
Consider `COc1ccc(/C=C\c2cc(OC)c(OC)c(OC)c2)c(O)c1O`, for which the GI50 is 0.274 µM in [1]; 1.98 µM in experiment [3]; 0.212 µM in experiment [4]; 0.0598 µM and 0.0848 µM in [5]; 0.0695 µM and 0.0832 µM in experiment [7]; 0.0286 µM in [8]. Moreover, the GI50 is < 0.0264 µM and 0.05 µM in experiment [9]; 0.586 µM and 1.68 µM in experiment [10]. The TGI is 30.8 µM and 11.4 µM in [1]; 30.1 µM and 90.2 µM in experiment [2]; 68.8 µM and 109 µM in experiment [3]; 20.6 µM and 54.2 µM in experiment [4]; 0.262 µM and 0.823 µM in [6]; 6.47 µM and 0.77 µM in experiment [7]. Further, the TGI in [9] was 0.0821 µM and 0.2 µM; in experiment [10], 15.1 µM and 48.3 µM.
Regarding `C=C1C(=O)OC2C1C(OC(=O)/C(C)=C\C)CC1(CO1)C1C(O)C=C(C)C21O` (centres undefined), the TGI is > 100 µM in experiment [1]; 2.62 µM in [2]; 41.1 µM in experiment [3]; 29.7 µM in experiment [4]; 27.2 µM in experiment [5]; 2.3 µM in [6]. Also, the TGI in experiment [7] amounted to 11.3 µM; in [8] it was 41.7 µM; in experiment [9], 8.06 µM; in [10], 30.5 µM.
For the compound `N#Cc1c(N)nc(N2CCSCC2)c(C#N)c1-c1ccc(O)cc1`, the GI50 in experiment [1] was 26.4 µM; in experiment [2] it was 19.8 µM; in experiment [3], 12.6 µM; in [4], 32.6 µM; in [5] it was 17.4 µM; in experiment [6] it was 22 µM. Besides, the GI50 is 17.5 µM in [7], 18.4 µM in experiment [8], 18 µM in experiment [9] and 24.5 µM in [10]. The TGI was > 100 µM in [1]; 47.1 µM in [2]; 28.3 µM in [3]; > 100 µM in experiment [4]; 36 µM in [5]; 52.7 µM in experiment [6]. Moreover, the TGI in [7] is 44.8 µM; in experiment [8], 55.7 µM; in experiment [9], 39 µM; in experiment [10], 98.9 µM.
Turning to `O=C(O)CC1CC=C[C@H]2c3cc4c(cc3C(=O)NC12)OCO4` (some centres undefined), the TGI in experiment [1], in experiment [2], in experiment [3], in experiment [4], in experiment [5] and in [6] was > 75 µM throughout. Moreover, the TGI in experiment [7], in [8], in experiment [9] and in [10] was > 75 µM in each case.
Turning to `Cc1c(C2Cc3ccccc3N2)c2ccccc2n1C` (centres undefined), the TGI in [1], in experiment [2], in experiment [3], in experiment [4], in experiment [5] and in experiment [6] was > 100 µM each time. The TGI in [7], in [8], in experiment [9] and in experiment [10] was > 100 µM throughout.
As for `CC1CC(C)C2=NOS3=C2C1=NO3` (centres undefined), the TGI in experiment [1], in experiment [2], in experiment [3], in experiment [4], in [5] and in experiment [6] was > 100 µM in each case. Besides, the TGI in [7], in experiment [8], in experiment [9] and in experiment [10] was > 100 µM throughout.
For `COC(=O)c1ccc2c(c1)c1c(C)c3ccncc3c(C)c1n2C`, the GI50 was 0.518 µM in experiment [1]; 0.113 µM in experiment [2]; 0.106 µM in experiment [3]; 0.0801 µM in experiment [4]; 0.304 µM in [5]; 0.538 µM in experiment [6]. The GI50 in experiment [7] was 0.536 µM; in experiment [8], 0.0647 µM; in experiment [9], 0.332 µM; in experiment [10] it was 0.471 µM. Further, the TGI in experiment [1] is > 100 µM; in [2] it was > 100 µM; in experiment [3], > 100 µM; in experiment [4], > 100 µM; in experiment [5], 16.1 µM; in experiment [6], 32 µM. The TGI in experiment [7] is 47.2 µM; in [8], 7.48 µM; in [9], 45.1 µM; in experiment [10], > 100 µM.
On to `C[C@@H]1CC[C@@H]2[C@@H](C)C[C@H]3[C@@H]4C(C)(C)OC(=O)[C@]4(C)C(=O)[C@@]23C1=O`, for which the TGI in [1], in experiment [2], in [3], in experiment [4], in experiment [5] and in experiment [6] was > 100 µM each time. In addition, the TGI in experiment [7], in experiment [8], in experiment [9] and in experiment [10] was > 100 µM each time. The GI50 in experiment [6] was > 100 µM; in [7], 75.9 µM.
For `CC[C@]12C=CCN3CC[C@@]4(c5ccc(OC)cc5N(C)[C@H]4[C@@](O)(C(=O)OC)[C@@H]1OC(=O)CCC(=O)N[C@H](Cc1c[nH]c4ccccc14)C(=O)OC)[C@@H]32`, the GI50 in [1] was 3.34 µM; in [2] it was 3.47 µM; in [3] it was 6.32 µM; in [4], 4.3 µM; in experiment [5] it was 13.5 µM; in [6] it was 14.4 µM. Further, the GI50 in experiment [7] is 3.8 µM; in experiment [8] it was 15.8 µM; in experiment [9] it was 2.63 µM; in experiment [10] it was 15.5 µM. The TGI was > 100 µM in experiment [1]; 14.3 µM in experiment [2]; 24.5 µM in experiment [3]; 24.1 µM in experiment [4]; 54.3 µM in experiment [5]; 34.9 µM in [6]. Besides, the TGI in experiment [7] was found to be 16.4 µM; in [8], 39.5 µM; in experiment [9] it was 7.06 µM; in [10], 33.7 µM.
As for `CC1=NN(C(=O)c2ccc(Cl)cc2)C(=O)/C1=C/c1ccco1`, the TGI in [1], in experiment [2], in experiment [3], in experiment [4], in experiment [5] and in experiment [6] was > 100 µM throughout. Moreover, the TGI in [7], in [8], in experiment [9] and in [10] was > 100 µM in each case.
Turning to `CCOc1c(C#N)c2c(N)ncnc2n1C1OC(CO)C(O)C1O` (centres undefined), the GI50 is 3.18 µM in experiment [1]; 2.17 µM in [2]; 5.01 µM in experiment [3]; 0.761 µM in experiment [4]; 3.69 µM in experiment [5]; 8.18 µM in [6]. Also, the GI50 in experiment [7] was 2.53 µM; in experiment [8] it was 4.63 µM; in experiment [9], 4.06 µM; in experiment [10], 3.34 µM. Also, the TGI in experiment [1] was 24 µM; in experiment [2] it was 10 µM; in experiment [3], 26.5 µM; in experiment [4], 2.54 µM; in [5], 34.4 µM; in experiment [6], 39.9 µM. In addition, the TGI in [7] was 7.09 µM; in experiment [8] it was > 100 µM; in experiment [9], 50 µM; in [10], 53.1 µM.
